Test results published in US11235001B2, “RUNX inhibitor” (KYOTO UNIVERSITY, priority 2016, dated 2022).

Key:
[1] = system: BCL11A, TRIM24, p21, BAX, PUMA, MDM2, PARP, cleaved caspase-3; assay: Immunoblotting of p53 pathway and apoptosis proteins in MV4-11 cells; format: cell-based, human; conditions: 1 μM, 24 hours
Method: (§1) Cells were washed twice with ice cold phosphate-buffered saline (PBS) and harvested in protein lysis buffer [50 mM Tris (pH 7.4), 100 mM NaCl, 0.1 mM EDTA, 1 mM phenylmethylsulfonyl fluoride, 1 mM β-glycerophosphate, 2.5 mM sodium pyrophosphate, 1 mM Na3VO4, lx protease inhibitor (Roche) and PhosSTOP (Roche)]. Whole cell extracts were separated by SDS-polyacrylamide gel electrophoresis (SDS-PAGE) and electrotransferred onto polyvinylidene difluoride membranes. Membranes were probed with the following antibodies: anti-Ctip1 antibody (Abcam, ab19487), anti-TRIM24 antibody (Bethyl Laboratories, Inc), anti-RUNX1 antibody (A-2), anti-GAPDH (FL-335), anti-p21 (C-19), anti-Bax (N-20) antibodies (Santa Cruz Biotechnology, Inc.), anti-RUNX2, anti-RUNX3, anti-p53 antibodies (Cell Signaling Technology), anti-CBFβ antibody (FL-182, Santa Cruz Biotechnology, Inc.), anti-cleaved caspase-3 antibody (5A1E, Cell Signaling Technology), anti-PARP antibody (46D11, Cell Signaling Technology). For secondary antibodies, anti-rabbit IgG, or anti-mosue IgG HRP-linked antibodies (Cell Signaling Technology) were used. Blots were detected using Chemi-Lumi One Super (nacalai tesque, Inc.) and ChemiDoc™ XRS+ Imager (Bio-Rad Laboratories, Inc.), as recommended by the manufacturers. Protein levels were quantified with Image Lab Software (Bio-Rad Laboratories, Inc.).
Briefly, MV4-11 cells were treated with 1 μM Chb-M′ or Chb-50 for 24 hours. The treated cells were dissolved in the protein lysis buffer. Whole cell extracts were resolved by SDS-polyacrylamide gel electrophoresis (SDS-PAGE) and transferred onto polyvinylidene difluoride membranes. The membranes were probed with each antibody. Blots were detected and quantified. As a control, the cells treated with DMSO were used.

[2] = system: PC-3 cells; conditions: read-out: IC50 (μM) in PC-3 cells; PC-3 (p53null/PTEN del/androgen-independent), 48 hours
[3] = system: SU/SR cells; assay: Xenograft ALL mouse model (SU/SR); format: in vivo
[4] = system: SOS1; assay: qRT-PCR of SOS1 in MKN45 gastric cancer cells; format: cell-based, human; conditions: MKN45, 1 μM, 6 hours
Method: A total RNA was isolated with RNeasy mini kit (Qiagen) and reverse transcribed with Reverse script kit (TOYOBO) to generate cDNA. Real-time quantitative polymerase chain reaction (PCR) was carried out with 7500 Real-Time PCR System (Applied Biosystems) according to the manufacturer's instructions. Results were normalized to GAPDH levels. Relative expression levels were calculated using the 2-ΔΔCt method.
To the MKN45 gastric cancer cell line, 1 μM of Chb-M′ was administered. After 6 hours, the mRNA level of SOS1 was evaluated by RT-PCR method using qRT-PCR (see the above-described “Real-time quantitative PCR (qRT-PCR)”). As a control, DMSO was administered. In the figure, the mRNA expression level of SOS1 is shown as a value relative to that in the DMSO-treated group.

[5] = system: CD62E (E-selectin); assay: FACS of cell surface CD62E (E-selectin) in HUVEC; format: cell-based, human; conditions: 1 μM, 24 hours
Method: Using HUVEC, changes in expression levels of E-selectin by the RUNX inhibitor and RUNX knockdown were analyzed by FACS (fluorescence-activated cell sorter). To HUVEC, 1 μM of Chb-M′ was administered. After 24 hours, different antibodies were used for immunostaining and changes in the cell surface expression of CD62E (E-selectin) were measured. As a control, DMSO was administered. In addition, HUVEC in which RUNX1 gene expression was knockdown by sh_RUNX1 #2 were immunostained using different antibodies to measure changes in the cell surface expression of CD62E (E-selectin). As a control, the cells were knockdown by a siRNA targeting luciferase (sh_Luc.). As the antibodies, an anti-human CD62E (E-selectin) antibody (manufactured by eBioscience) and an isotype antibody (mouse IgG1) of anti-human CD62E (E-selectin) antibody (manufactured by eBioscience) were used.

[6] = Acute toxicological testing in NOG mice; format: in vivo, mouse
Method: To check the pharmacological safety of the PI polyamide conjugates in vivo, acute toxicological testing of Chb-M′ in mice was first performed. NOD/Shi-scid,IL-2RγKO (NOG) mice were injected with Chb-M′ at various concentrations. Complete blood cell counts, blood biochemistry and body weight were measured (n=5).

[7] = system: E-selectin; assay: In vivo E-selectin expression in bone marrow endothelial cells; parameters: species or system mouse; conditions: normal mice, 320 μg/kg, 6 times over 2 weeks, 24 hours after last administration
Method: Changes in expression levels of E-selectin in bone marrow endothelial cells by Chb-M′ administration were examined in vivo. To normal mice, DMSO (control) or Chb-M′ was administered 6 times over 2 weeks (320 μg/kg per administration). Twenty-four hours after the last administration (in a state in which Chb-M′ had been eliminated from the body of the mouse), the femur and tibia were harvested, from them bone marrow hematopoietic cells were removed, and endothelial cells were collected and subjected to FACS analysis. CD45 negative cells (bone marrow cells without bone marrow hematopoietic cells) were gated, and a ratio between CD31 positive cells (vascular endothelial marker-positive) and Lin-negative CD45-negative CD31-positive E-selectin-positive cells (E-selectin-positive bone marrow vascular endothelial cells) was analyzed by FACS.

[8] = system: RUNX family (RUNX1, RUNX2 and RUNX3); assay: Gene expression microarray in MV4-11 cells vs RUNX family knockdown; format: cell-based, human; conditions: 1 μM, 6 hours, top 500 up- and down-regulated genes
[9] = system: RERF-LC-MS; assay: Cell viability, lung adenocarcinoma RERF-LC-MS; format: cell-based, human; conditions: RERF-LC-MS (EGFR wild-type p53-mutated), 48 hours
[10] = system: BCR-ABL fusion protein; assay: Western blotting of BCR-ABL fusion protein in CML and PhALL cells; format: cell-based, human; conditions: 3 μM or 1 μM, 24 hours
Method: as §1
To BV173 cells, MYL cells, SU-Ph2 cells, and SU/SR cells, 3 μM or 1 μM of Chb-M′ were administered. After 24 hours, proteins were extracted, and then subjected to the Western blotting method (see the above-described “Immunoblotting”) using an ABL antibody to confirm expressions of BCR-ABL fusion protein at protein levels. As a control, DMSO was administered.

[11] = system: HMC-1.2 cell line; assay: Cell proliferation of HMC-1.2 mast cells; format: cell-based, human

Compound: CN(C)CCCNC(=O)c1cc(NC(=O)c2cc(NC(=O)c3cc(NC(=O)c4cc(NC(=O)CCCNC(=O)c5nc(NC(=O)c6nc(NC(=O)c7cc(NC(=O)c8nc(NC(=O)CCNC(=O)CCCc9ccc(N(CCCl)CCCl)cc9)cn8C)cn7C)cn6C)cn5C)cn4C)cn3C)cn2C)cn1C [Chb-M′]
- Cleaved form of PARP and cleaved caspase-3 (apoptosis) [1]: emergence
- Protein expression levels of p53 and downstream proteins (p21, BAX) [1]: increased
- Protein expression levels of suppressors of p53 (BCL11A and TRIM24) [1]: reduced
- IC50 [2]: 0.62 µM
- H&E staining of bone marrow ([3]; NOG mice with SU/SR): homogeneity was lost
- Invasion of liver by transplanted PhALL cells (hCD45 staining) ([3]; NOG mice with SU/SR): reduced
- Invasion of spleen by transplanted PhALL cells (hCD45 staining), compared with liver ([3]; NOG mice with SU/SR): same results
- hCD45 staining of bone marrow (human leukemia cells) ([3]; NOG mice with SU/SR): most of the brown parts lost
- Lengthening of overall survival periods ([3]; NOG mice with SU/SR (Ph+), 320 μg/kg IV twice a week): about 1.8 times
- Expression of SOS1 (mRNA) [4]: suppressed
- Cell surface expression of E-selectin (FACS) [5]: decrease
- 10 mg/kg dose relative to the amount necessary to gain medicinal effect [6]: more than thirty times higher
- Tolerability in vivo [6]: highly tolerable
- Platelets counts ([6]; 10 mg/kg body weight injection): slight decrease
- E-selectin expression levels in bone marrow endothelial cells [7]: significantly decreased
- Gene expression pattern vs cells with all RUNX family members knockdown [8]: significantly correlated
- IC50 compared with the EGFR inhibitor (gefitinib) [9]: lower IC50 values
- p210BCR-ABL fusion protein ([10]; BV173 cells): lost
- p210BCR-ABL fusion protein ([10]; MYL cells): lost
- p190BCR-ABL fusion protein ([10]; SU-Ph2 cells): lost
- p190BCR-ABL fusion protein ([10]; SU/SR cells): lost
- Cell proliferation of mast cells having mutated c-kit [11]: suppression
